The source of these data is ChEMBL document CHEMBL1201862, “PubChem BioAssay data set” (2004).

Holding throughout (assay): DTP human tumour cell line panel, 48 h
The test system of assay [1] is A498.
The subject of assay [2] is ACHN.
Assay [3] has as its system COLO 205.
The test system of assay [4] is HCT-116.
Assay [5] has as its system HT-29.
Assay [6] relates to M14.
In assay [7] the test system is MCF7.
Assay [8] deals with MDA-MB-435.
The test system of assay [9] is MOLT-4.
Assay [10] relates to NCI-H23.
Assay [11] has as its system NCI-H460.
The subject of assay [12] is NCI/ADR-RES.
The subject of assay [13] is OVCAR-3.
Assay [14] has as its system OVCAR-8.
Assay [15] deals with PC-3.
The subject of assay [16] is RXF 393.
For assay [17], the system named is SN12C.
For assay [18], the system named is SNB-19.
In assay [19] the test system is UACC-257.
Assay [20] deals with UACC-62.

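Method: 48-hour compound exposure of cells in 96-well plates, five concentrations, linear interpolation of endpoints. At the GI50, growth is halved.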 Activity calls are given as the source filed them. Rule as the data show it: active = GI50 up to about 1.1 µM and inactive = higher.

Regarding `CCOC(=O)/C(=C\NCC(OCC)OCC)c1nc2ccccc2[nH]1`, the GI50 (usually the concentration that inhibits growth by half) was 48.6 µM (inactive) in assay [1]; 35.2 µM (inactive) in assay [2]; 16.5 µM (inactive) in [3]; 29.6 µM (inactive) in [4]; 22.4 µM (inactive) in assay [5]; 36.1 µM (inactive) in [6]. The GI50 was 30.1 µM (inactive) in assay [7]; 25 µM (inactive) in assay [8]; 17.1 µM (inactive) in [9]; 21.4 µM (inactive) in assay [10]; 23.1 µM (inactive) in [11]; 2.02 µM (inactive) in assay [12]. The GI50 in assay [13] is 22 µM (inactive); in assay [14], 32.8 µM (inactive); in [15], 24 µM (inactive); in assay [16], 35.3 µM (inactive); in [17], 39.2 µM (inactive); in [18], 67.3 µM (inactive). The GI50 was 25.1 µM (inactive) in assay [19] and 16.3 µM (inactive) in assay [20].

As to `Clc1ccc(C2=NN=C3C(c4ccccc4)=Nc4ccccc4N3C2)cc1`, the GI50 in assay [1] was 56.1 µM (inactive); in [2], 7.06 µM (inactive); in assay [3] it was 5.68 µM (inactive); in [4] it was 4.17 µM (inactive); in assay [5], 3.01 µM (inactive); in assay [6] it was 2.79 µM (inactive). Moreover, the GI50 in [7] was 4.4 µM (inactive); in [8], 4.72 µM (inactive); in assay [9] it was 0.957 µM (active); in assay [10], 16.3 µM (inactive); in assay [11], 1.38 µM (inactive); in [12], 4.48 µM (inactive). Besides, the GI50 in assay [13] was 2.02 µM (inactive); in assay [14], 4.05 µM (inactive); in assay [15], 8.61 µM (inactive); in assay [16], 1.48 µM (inactive); in assay [17], 20.9 µM (inactive); in [18], 11.7 µM (inactive). The GI50 in [19] is 5.73 µM (inactive); in assay [20] it was 5.3 µM (inactive).

Consider `Cn1cc(-c2n[nH]c(-c3ccc(Cl)cc3)nc2=O)c2ccccc21`, for which the GI50 is 2.04 µM (inactive) in assay [1]; 7.76 µM (inactive) in assay [2]; 2.07 µM (inactive) in assay [3]; 2.12 µM (inactive) in assay [4]; 2.19 µM (inactive) in assay [5]; 3.18 µM (inactive) in [6]. Besides, the GI50 is 1.8 µM (inactive) in assay [7]; 0.184 µM (active) in [8]; 1.6 µM (inactive) in assay [9]; 4.28 µM (inactive) in assay [10]; 2.33 µM (inactive) in [11]; 1.69 µM (inactive) in [12]. The GI50 was 0.979 µM (active) in assay [13]; 5.62 µM (inactive) in assay [14]; 2.3 µM (inactive) in assay [15]; 2.4 µM (inactive) in assay [16]; 6.34 µM (inactive) in assay [17]; 3.03 µM (inactive) in assay [18]. For the same compound, the figures for the GI50 in [19] and in assay [20] were 7.53 µM (inactive) and 1.73 µM (inactive), respectively.

Consider `Cc1[nH]c2ncn(/N=C/c3ccccc3)c(=N)c2c1Cc1ccccc1`, for which the GI50 was 60.8 µM (inactive) in assay [1]; > 100 µM (inactive) in [2]; > 100 µM (inactive) in assay [3]; 87.3 µM (inactive) in [4]; > 100 µM (inactive) in assay [5]; > 100 µM (inactive) in assay [6]. In addition, the GI50 in assay [7] was 79.6 µM (inactive); in assay [8] it was 84.1 µM (inactive); in assay [9], 53 µM (inactive); in assay [10], > 100 µM (inactive); in assay [11], > 100 µM (inactive); in assay [12], > 100 µM (inactive). For the same compound, the GI50 in [13] is > 100 µM (inactive); in assay [14], > 100 µM (inactive); in assay [15], 45.7 µM (inactive); in [16], > 100 µM (inactive); in assay [17] it was > 100 µM (inactive); in assay [18], > 100 µM (inactive). Besides, the GI50 in [19] is 75.3 µM (inactive); in [20], 58.9 µM (inactive).

Turning to `CC(C)(C)c1cc(OCc2nnc3sc(-c4ccc(Cl)cc4)nn23)c(Cl)cc1OCc1nnc2sc(-c3ccc(Cl)cc3)nn12`, the GI50 is 8.73 µM (inactive) in [1]; 5.4 µM (inactive) in assay [2]; 7.46 µM (inactive) in [3]; 3.54 µM (inactive) in assay [4]; 30.8 µM (inactive) in assay [5]; 3.06 µM (inactive) in assay [6]. In addition, the GI50 in assay [7] was 3.17 µM (inactive); in assay [8], 0.478 µM (active); in assay [9], 4.93 µM (inactive); in [10], 4.94 µM (inactive); in [11], 3.06 µM (inactive); in assay [12], 2.01 µM (inactive). Moreover, the GI50 is 2.47 µM (inactive) in assay [13]; 3.93 µM (inactive) in assay [14]; 4.62 µM (inactive) in assay [15]; 2.81 µM (inactive) in assay [16]; 10.2 µM (inactive) in [17]; 3.59 µM (inactive) in assay [18]. For the same compound, the GI50 in assay [19] is 11.5 µM (inactive); in assay [20] it was 4.45 µM (inactive).

For the compound `Oc1c(CN2CCCC2)ccc2cccnc12`, the GI50 in assay [1] was 29.9 µM (inactive); in [2], 3.55 µM (inactive); in assay [3] it was 25.9 µM (inactive); in assay [4], 14.1 µM (inactive); in assay [5], 27.5 µM (inactive); in assay [6], 15.7 µM (inactive). The GI50 in assay [7] was 29.6 µM (inactive); in assay [8], 38.9 µM (inactive); in [9] it was 20.1 µM (inactive); in assay [10] it was 27 µM (inactive); in assay [11], 20.3 µM (inactive); in [12] it was 2.38 µM (inactive). Besides, the GI50 in assay [13] was 23.9 µM (inactive); in assay [14] it was 11 µM (inactive); in assay [15], > 39.5 µM (inactive); in assay [16] it was > 67.9 µM (inactive); in assay [17], 19.3 µM (inactive); in assay [18] it was 18.3 µM (inactive). Also, the GI50 is 29.3 µM (inactive) in assay [19] and 26.2 µM (inactive) in assay [20].

In the case of `Cn1c(=O)c2c(nc3sc4ncccc4c(=O)n32)n(C)c1=O`, the GI50 in [1], in assay [2], in assay [3], in assay [4], in assay [5] and in assay [6] was > 100 µM (inactive) each time. Also, the GI50 in assay [7], in assay [8], in [9], in assay [10], in [11] and in assay [12] was > 100 µM (inactive) in each case. For the same compound, the GI50 in assay [13], in assay [14], in assay [15], in assay [16], in [17] and in assay [18] was > 100 µM (inactive) in each case. Also, the GI50 in [19] and in assay [20] was > 100 µM (inactive) throughout.
